These results are taken from patent US12037329B2, “SphK inhibitors and methods of making and using same” (Washington University, priority 2021, dated 2024).

Each structure is given as a SMILES string. “Also recorded” adds a separate entry of the source. Like-named read-outs stand apart in the source and are kept apart here.

Experiment [1] addresses T1, SphK2 (Homo sapiens (Human), UniProt Q9NRA0). Briefly: ADP-Glo kinase assay, SphK2. The experiment is classed as biochemical. An excerpt: The bioluminescence-based kinase assay such as ADP-Glo assay measures ADP formed from a kinase reaction with a luciferase. Upon the completion of a kinase reaction, the remaining ATP is depleted, the ADP produced in the kinase reaction is then converted to ATP and the detection is based on a sensitive and robust bioluminescence reaction. It has a broad linear range of ATP concentrations and high dynamic range. To determine the inhibition activity of the compounds, the ADP-Glo kinase assay was used which was able to detect down to 20% of 1 μM ATP to ADP conversion (FIG. 4A).
ADP-Glo (Promega, Madison, WI) kinase assay were used to evaluate the kinase activity of SphK. ATP to ADP standard curves were prepared in the kinase buffer to assess the linearity of the assay in order to calculate the amount of ADP produced in each tested conditions (FIG. 4A). SB10 (tenfold signal to background ra-tio) of SphK was also determined to evaluate the enzyme perfor-mance and to optimize the kinase reaction condition in this system. In brief, for SphK2, […], 100 μM of D-erythro-Sphingosine (Tocris Bioscience, Minneapolis, MN), and 2 ng of recombinant human SphK2 (R&D Systems, Minneapolis, MN) with desired concentration of each synthesized compound were used for SphK2 kinase reaction. For SphK1, exact same reaction condition was used except 0.5 ng of recombinant human SphK1 was used.
To evaluate the SphK selectivity of each compound, 125 μM of each compound in reaction buffer ([…] Tris, pH 8.0, […] MgCl2, and 0.1 mg/mL BSA) with 5% DMSO was incubated with either SphK1 or SphK2 in a 384-well solid white low volume microplate (Corning, Corning, NY), and the reaction was initiated by adding mixture of ATP and D-erythro-Sphingosine to a total volume of 5 μL, after 1 h incubation at room temperature with gentle shaking, the reaction was stopped by adding equal volume of ADP-Glo buffer and incubated for another hour to remove excess amount of ATP from the reaction. Afterwards, 10 μL of kinase detection reagent was added, mixed, and incubated for 30 min under dark. Luminescence output was recorded using a SpectraMax M5 Multi-Mode Microplate Readers (Molecular Devices, San Jose, CA), an integration time of 500 ms was used. All reactions were performed in triplicate. The enzyme activity of SphK in the presence of each compound was normalized to the no treatment control. […] The final data was calculated using Prism 7.0 (GraphPad Software, La Jolla, CA), IC50 was determined using Nonlinear regression (curve fit) four parameters dose-response calculations.
For orientation: In ADP-Glo the light output rises with the ADP produced.

Experiment [2] has as its target T1, SphK2. The following applies: cited from earlier work.
The test system of experiment [3] is U-251 MG human glioblastoma cells. Nature of the experiment: U-251 MG cell viability, Hoechst 33258/propidium iodide imaging, 125 μM, 24 h. The experiment is classed as cell-based. The following applies: hydrochloride. The method, then:
Cells were seeded into a 96-well microplate (Corning, Corning, NY) at 3000 cells/well and incubated for approximately 16 h. […] Cells were imaged using MetaXpress High-Content Image Acquisition and Analysis Software 6.1 and ImageXpress Micro XLS Wide-field High-Content Analysis System (Molecular Devices, San Jose, CA). Images were taken with a Nikon 10 CFI Plan Fluor objective. For all samples, triplicated measurements were performed.

The next experiment has as its system U-251 MG cells. Nature of the experiment: CellTiter96 MTS cell viability dose response, U-251 MG. The format is cell-based, human. The following applies: Homo sapiens; U-251 MG cells, 72 h, MTS; read-out: IC50 (cell viability). How it is done: The anti-tumor activity of these inhibitors was further examined at different doses.
(§1) Cell viability was determined using CellTiter96 MTS Assay and compared to DMSO treated control cells. IC50 values were calculated by non-linear regression analysis of the dose-response curve using GraphPad Prism version 8.00 for Windows (GraphPad Software).

The subject of the next experiment is SiHa cells. Nature of the experiment: CellTiter96 MTS cell viability dose response, SiHa. The format is cell-based. The note with it: Homo sapiens. The method, then:
(§2) The anti-tumor activity of these inhibitors was also examined in different cell types. U-251 MG cells, SiHa cells, BT20 cells, and MDA-MB-453 cells were treated with increasing dose (10^−10 M to 10^−4 M) of SphK2 inhibitor TZ72-53 (21b), and dose response curves were generated (FIG. 9). IC50 values of 21b in the four different cell lines were calculated by non-linear regression analysis of the dose-response curve and are shown in Table 5 below.
as §1

For a further experiment, the system named is BT20 cells. Nature of the experiment: CellTiter96 MTS cell viability dose response, BT20. The experiment is classed as cell-based. The following applies: Homo sapiens, BT-20. How it is done: as §2, §1
Another experiment has as its system MDA-MB-453 cells. Briefly: CellTiter96 MTS cell viability dose response, MDA-MB-453. The experiment is classed as cell-based. The following applies: Homo sapiens, MD-MB-453 (MDA-MB-453) cells. The method, then:
as §2, §1

For the next experiment, the target named is SphK1 (Homo sapiens (Human), UniProt Q9NYA1). The note with it: cited from earlier work.
Sequence of SphK1 (Q9NYA1 whole entry): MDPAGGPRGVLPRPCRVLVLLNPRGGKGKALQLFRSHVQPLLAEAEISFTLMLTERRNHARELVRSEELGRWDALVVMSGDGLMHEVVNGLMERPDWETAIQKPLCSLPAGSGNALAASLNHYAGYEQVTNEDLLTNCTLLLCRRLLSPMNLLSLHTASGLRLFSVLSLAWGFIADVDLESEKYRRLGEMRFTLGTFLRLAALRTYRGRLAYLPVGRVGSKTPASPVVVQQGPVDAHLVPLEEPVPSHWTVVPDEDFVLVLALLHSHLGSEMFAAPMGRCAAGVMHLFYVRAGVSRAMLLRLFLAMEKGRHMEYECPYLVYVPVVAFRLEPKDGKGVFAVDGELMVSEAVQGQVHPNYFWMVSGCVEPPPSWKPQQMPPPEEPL

T1 sequence (Q9NRA0 whole entry): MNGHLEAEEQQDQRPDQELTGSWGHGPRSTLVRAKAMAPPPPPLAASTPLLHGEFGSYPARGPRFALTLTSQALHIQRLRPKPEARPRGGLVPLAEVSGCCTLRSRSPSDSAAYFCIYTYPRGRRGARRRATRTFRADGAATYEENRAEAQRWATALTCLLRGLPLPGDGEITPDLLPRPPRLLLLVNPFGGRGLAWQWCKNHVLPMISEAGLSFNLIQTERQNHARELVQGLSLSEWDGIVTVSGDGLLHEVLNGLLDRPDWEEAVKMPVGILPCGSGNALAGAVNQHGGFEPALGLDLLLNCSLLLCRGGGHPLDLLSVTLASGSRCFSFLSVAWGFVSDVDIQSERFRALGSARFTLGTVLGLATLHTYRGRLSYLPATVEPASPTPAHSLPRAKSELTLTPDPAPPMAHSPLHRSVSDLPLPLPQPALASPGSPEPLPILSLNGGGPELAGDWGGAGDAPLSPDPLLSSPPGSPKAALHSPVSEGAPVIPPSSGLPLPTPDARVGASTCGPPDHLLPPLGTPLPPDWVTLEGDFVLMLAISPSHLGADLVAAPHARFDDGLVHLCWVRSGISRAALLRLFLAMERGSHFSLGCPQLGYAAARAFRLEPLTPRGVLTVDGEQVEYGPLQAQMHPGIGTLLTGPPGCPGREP

As a reminder, the IC50 is the concentration that gives 50% inhibition. By Ki is commonly meant a measure of affinity in units of concentration, obtained from inhibition or displacement. Regarding `N=C(N)N1CCC[C@H]1Cc1nc(-c2ccc(Nc3nc(-c4cccc(C(F)(F)F)c4)cs3)cc2)no1` [Compound 13, reference compound], the IC50 on SphK2 [1] (ADP-Glo assay, 50 μM ATP, recombinant human SphK2) came out at 0.28 µM. Besides, the inhibition constant (Ki) at SphK2 [2] (SphK2-selective inhibitors) is 0.09 µM.

For `Cl.N=C(N)N1CCC[C@H]1Cc1nc(-c2ccc(Cn3cc(-c4ccc(C(F)(F)F)cc4)nn3)cc2)no1` [Compound 21b, (S)-2-((3-(4-((4-(4-(Trifluoromethyl)phenyl)-1H-1,2,3-triazol-1-yl)methyl)phenyl)-1,2,4-oxadiazol-5-yl)methyl)-pyrrolidine-1-carboximidamide hydrochloride], the “SphK2 inhibitory activity (in words)” value at SphK2 [1] is given as “no inhibitory activity”. Besides, the “selectivity/specificity for SphK2 over SphK1” value at SphK2 [1] (125 μM of each compound, SphK2 versus SphK1, FIG. 5, hydrochloride) is “lowest specificity; also recorded: no selectivity”. In addition, the “antitumor activity / reduction of U-251 MG cell viability (in words)” value in experiment [3] was “high anti-tumor activity; also recorded: significant reduction”. For the same compound, the IC50 was found to be 11 µM with U-251 MG cells, 13 µM in the experiment on SiHa cells, 21.3 µM in the experiment on BT20 cells and 35.8 µM in the experiment on MDA-MB-453 cells.

Take `Cc1ccc(S(=O)(=O)Nc2ccccc2C=Nc2ccccc2NS(=O)(=O)c2ccc(C)cc2)cc1` [MP-A08]: the Ki at SphK1 was 27 ± 3 µM; at SphK2 [2] (human SphK2), 6.9 ± 0.8 µM.
